Active and inactive are the calls of the source.
Legend:
[1] = cells
[2] = target: T1, Mucolipin-3 (Homo sapiens, UniProt Q8TDD5); test: Dose response cell-based high-throughput screening assay for agonists of the transient receptor potential channel ML3 (TRPML3). [Related pubchem assays: 1526, 1424, 1448 ]; assay type: functional
T1 sequence (Q8TDD5 whole entry): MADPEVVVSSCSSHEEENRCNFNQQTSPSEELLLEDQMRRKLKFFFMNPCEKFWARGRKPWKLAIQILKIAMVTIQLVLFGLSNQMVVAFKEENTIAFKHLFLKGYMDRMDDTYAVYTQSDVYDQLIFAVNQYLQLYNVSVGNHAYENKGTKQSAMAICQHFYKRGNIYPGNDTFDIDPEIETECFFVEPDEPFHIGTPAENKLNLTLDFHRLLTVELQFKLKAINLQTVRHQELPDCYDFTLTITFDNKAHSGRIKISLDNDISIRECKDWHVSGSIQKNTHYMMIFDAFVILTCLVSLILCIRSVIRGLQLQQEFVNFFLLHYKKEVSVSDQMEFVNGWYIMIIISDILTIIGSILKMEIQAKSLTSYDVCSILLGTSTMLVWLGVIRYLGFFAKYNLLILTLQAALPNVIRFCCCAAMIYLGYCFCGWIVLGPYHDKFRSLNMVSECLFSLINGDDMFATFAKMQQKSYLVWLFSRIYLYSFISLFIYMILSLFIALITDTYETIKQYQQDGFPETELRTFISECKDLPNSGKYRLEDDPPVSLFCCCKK

[3] = target: Ion channel NompC (Danio rerio, UniProt Q7T1G6); test: Fluorescence counterscreen assay for TRPML3 agonists: dose response cell-based high-throughput screening assay to identify agonists of the transient receptor potential channel N1 (TRPN1). [Related pubchem assays: 1526, 1424, 1448 ]; assay type: functional
Chain of Ion channel NompC (Q7T1G6 whole entry): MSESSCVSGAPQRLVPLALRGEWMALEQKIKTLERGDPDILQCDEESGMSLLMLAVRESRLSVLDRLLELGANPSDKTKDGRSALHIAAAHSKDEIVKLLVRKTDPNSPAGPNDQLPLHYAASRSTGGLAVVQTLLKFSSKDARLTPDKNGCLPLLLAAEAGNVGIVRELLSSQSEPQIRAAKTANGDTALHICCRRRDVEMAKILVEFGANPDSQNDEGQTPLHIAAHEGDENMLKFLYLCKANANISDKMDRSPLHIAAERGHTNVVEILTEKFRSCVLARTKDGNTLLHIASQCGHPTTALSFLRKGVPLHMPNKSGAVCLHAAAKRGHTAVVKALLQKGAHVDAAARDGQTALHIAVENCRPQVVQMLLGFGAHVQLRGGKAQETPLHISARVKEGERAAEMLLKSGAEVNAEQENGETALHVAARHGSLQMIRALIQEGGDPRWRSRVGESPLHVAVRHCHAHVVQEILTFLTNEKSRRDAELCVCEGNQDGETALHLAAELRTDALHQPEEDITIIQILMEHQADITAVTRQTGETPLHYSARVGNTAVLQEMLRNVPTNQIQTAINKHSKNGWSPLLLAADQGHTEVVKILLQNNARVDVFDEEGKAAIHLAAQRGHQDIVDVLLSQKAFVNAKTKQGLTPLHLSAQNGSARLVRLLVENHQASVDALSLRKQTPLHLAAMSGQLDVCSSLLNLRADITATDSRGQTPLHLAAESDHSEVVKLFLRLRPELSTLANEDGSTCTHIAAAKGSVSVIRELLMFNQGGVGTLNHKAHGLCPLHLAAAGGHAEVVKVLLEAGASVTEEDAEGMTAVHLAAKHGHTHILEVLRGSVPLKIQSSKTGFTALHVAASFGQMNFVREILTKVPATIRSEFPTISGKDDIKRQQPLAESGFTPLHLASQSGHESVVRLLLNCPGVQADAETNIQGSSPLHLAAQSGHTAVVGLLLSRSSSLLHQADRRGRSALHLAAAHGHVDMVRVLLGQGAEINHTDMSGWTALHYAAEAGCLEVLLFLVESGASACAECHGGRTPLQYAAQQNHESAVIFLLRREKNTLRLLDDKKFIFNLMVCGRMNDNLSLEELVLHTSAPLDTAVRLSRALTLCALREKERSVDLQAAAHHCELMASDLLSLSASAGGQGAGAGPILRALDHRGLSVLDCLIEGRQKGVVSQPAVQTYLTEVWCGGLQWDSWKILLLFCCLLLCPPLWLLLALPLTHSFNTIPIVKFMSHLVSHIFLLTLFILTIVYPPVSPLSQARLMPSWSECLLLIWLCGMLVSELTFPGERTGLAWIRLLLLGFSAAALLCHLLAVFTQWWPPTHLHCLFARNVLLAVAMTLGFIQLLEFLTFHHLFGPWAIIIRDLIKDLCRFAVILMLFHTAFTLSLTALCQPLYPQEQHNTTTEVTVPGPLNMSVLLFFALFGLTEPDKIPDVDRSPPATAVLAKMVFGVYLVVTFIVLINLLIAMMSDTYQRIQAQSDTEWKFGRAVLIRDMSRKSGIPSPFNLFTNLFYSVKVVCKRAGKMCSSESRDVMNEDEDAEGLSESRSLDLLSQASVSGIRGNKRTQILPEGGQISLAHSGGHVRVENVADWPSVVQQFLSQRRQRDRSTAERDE

[4] = target: NAD-dependent protein deacylase sirtuin-5, mitochondrial (Homo sapiens, UniProt Q9NXA8); test: SIRT5 desuccinylase inhibitors, dose response, biochemical, fluorescence imaging, cherry-pick, set 5 (AID 720591);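 note: desuccinylation of succinyl peptide AMC substrate read as fluorescence after trypsin release; potency of inhibitors that lower fluorescence and may act on trypsin instead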
Chain of NAD-dependent protein deacylase sirtuin-5, mitochondrial (Q9NXA8 whole entry): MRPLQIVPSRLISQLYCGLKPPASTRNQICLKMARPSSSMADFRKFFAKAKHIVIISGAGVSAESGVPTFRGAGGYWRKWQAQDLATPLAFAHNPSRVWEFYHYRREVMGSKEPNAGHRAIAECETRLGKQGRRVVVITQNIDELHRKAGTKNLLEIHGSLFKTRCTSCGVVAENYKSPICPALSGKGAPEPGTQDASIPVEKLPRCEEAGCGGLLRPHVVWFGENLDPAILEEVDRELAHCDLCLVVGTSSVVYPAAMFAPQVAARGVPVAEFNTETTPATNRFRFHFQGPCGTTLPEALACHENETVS

[5] = HEp-2 cell cytotoxicity, dose response, cytotoxicity control for RSV inhibitor project, HTS (AID 2410); assay type: functional; settings: human respiratory syncytial virus
[6] = system: Streptococcus; test: Group A Streptococcus viability loss, dose response, counter-screen for streptokinase expression inhibitor project, luminescence, BacTiterGlo (AID 1915); assay type: functional, organism-based;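 note: potency for reduction of bacterial viability or growth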
[7] = system: Streptococcus sp. 'group A'; test: growth inhibition of control SK(-) GAS strain, dose response, counter-screen for streptokinase expression inhibitor project, luminescence, kanamycin, BacTiterGlo, confirmation (AID 1900); assay type: functional, organism-based
[8] = target: T2, Streptokinase A (Streptococcus pyogenes serotype M1, UniProt P10520); test: S. pyogenes streptokinase expression inhibitors, potency, dose response, plasminogen activation absorbance, OD405 (AID 1914); assay type: functional, Streptococcus pyogenes M1 GAS;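 note: secreted streptokinase activity via plasminogen activation per viability signal from cell pellet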
T2 sequence (P10520 whole entry): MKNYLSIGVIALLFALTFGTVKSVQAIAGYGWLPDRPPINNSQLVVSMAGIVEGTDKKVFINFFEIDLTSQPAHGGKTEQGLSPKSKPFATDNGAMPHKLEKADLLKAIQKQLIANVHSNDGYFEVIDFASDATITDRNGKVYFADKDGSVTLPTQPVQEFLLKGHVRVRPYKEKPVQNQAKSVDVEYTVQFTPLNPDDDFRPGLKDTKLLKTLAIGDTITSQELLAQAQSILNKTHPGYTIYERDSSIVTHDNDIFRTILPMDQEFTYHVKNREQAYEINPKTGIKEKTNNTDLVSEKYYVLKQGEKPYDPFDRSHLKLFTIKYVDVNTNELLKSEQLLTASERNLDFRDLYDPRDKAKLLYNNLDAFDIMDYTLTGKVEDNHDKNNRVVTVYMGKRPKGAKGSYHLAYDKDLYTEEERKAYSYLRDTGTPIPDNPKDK

[9] = target: Glyceraldehyde-3-phosphate dehydrogenase (Homo sapiens, UniProt P04406)
Chain of Glyceraldehyde-3-phosphate dehydrogenase (P04406 whole entry): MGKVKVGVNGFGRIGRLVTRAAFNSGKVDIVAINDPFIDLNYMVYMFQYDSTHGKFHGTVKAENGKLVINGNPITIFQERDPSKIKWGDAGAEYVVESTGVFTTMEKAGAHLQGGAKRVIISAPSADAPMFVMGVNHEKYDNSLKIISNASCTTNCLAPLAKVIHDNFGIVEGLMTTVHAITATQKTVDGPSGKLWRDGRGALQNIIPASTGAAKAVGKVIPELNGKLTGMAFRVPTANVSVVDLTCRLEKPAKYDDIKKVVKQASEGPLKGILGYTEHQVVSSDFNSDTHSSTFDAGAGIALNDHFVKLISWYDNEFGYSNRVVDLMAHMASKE

[10] = target: FAD-linked sulfhydryl oxidase ALR (Homo sapiens, UniProt P55789); test: inhibitors of human ALR sulfhydryl oxidase, dose response, biochemical, H2O2 detection, luminescence, cherry-pick (AID 493248)
Chain of FAD-linked sulfhydryl oxidase ALR (P55789 whole entry): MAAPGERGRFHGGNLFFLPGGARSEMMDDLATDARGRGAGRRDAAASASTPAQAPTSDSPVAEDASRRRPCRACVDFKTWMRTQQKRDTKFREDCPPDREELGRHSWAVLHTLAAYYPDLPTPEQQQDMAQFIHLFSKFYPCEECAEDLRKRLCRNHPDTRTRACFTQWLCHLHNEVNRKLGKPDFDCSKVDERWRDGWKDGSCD

[11] = target: T3, Leucine aminopeptidase (Plasmodium falciparum 3D7, UniProt Q8IL11); test: P. falciparum M17LAP inhibitors, primary screen, biochemical, fluorogenic H-Leu-NHMec substrate, 1536-well (AID 1619); assay type: functional
T3 sequence (Q8IL11 whole entry): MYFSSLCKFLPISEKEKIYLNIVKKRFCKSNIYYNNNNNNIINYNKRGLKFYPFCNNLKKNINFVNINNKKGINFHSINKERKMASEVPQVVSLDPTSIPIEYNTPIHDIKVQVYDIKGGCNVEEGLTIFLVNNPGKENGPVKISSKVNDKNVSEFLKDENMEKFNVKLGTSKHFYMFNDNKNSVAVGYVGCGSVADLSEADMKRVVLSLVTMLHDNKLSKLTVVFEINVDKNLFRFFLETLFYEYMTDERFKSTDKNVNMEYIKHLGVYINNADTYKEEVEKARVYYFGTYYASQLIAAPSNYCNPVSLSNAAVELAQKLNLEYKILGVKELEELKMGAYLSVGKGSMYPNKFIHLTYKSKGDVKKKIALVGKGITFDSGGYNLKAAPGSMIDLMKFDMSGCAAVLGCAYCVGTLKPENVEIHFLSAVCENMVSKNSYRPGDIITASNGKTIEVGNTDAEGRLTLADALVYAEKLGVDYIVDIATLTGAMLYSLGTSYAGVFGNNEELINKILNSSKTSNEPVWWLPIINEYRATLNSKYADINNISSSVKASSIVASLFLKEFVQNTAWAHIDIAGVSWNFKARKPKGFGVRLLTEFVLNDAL

[12] = target: T4, DNA repair protein RAD52 homolog (Homo sapiens, UniProt P43351); assay type: functional, biochemical
T4 sequence (P43351 whole entry): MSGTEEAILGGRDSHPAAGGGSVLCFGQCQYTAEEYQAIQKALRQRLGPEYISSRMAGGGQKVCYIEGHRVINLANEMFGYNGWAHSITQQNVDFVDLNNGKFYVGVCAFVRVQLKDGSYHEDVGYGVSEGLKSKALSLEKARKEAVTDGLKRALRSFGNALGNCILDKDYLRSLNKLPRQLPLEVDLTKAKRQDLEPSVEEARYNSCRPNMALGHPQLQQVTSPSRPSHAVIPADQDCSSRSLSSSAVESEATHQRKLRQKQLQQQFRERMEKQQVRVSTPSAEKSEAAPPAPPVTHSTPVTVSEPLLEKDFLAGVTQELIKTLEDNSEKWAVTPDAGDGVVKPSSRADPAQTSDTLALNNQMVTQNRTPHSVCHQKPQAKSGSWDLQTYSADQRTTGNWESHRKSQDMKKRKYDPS

[13] = target: T5, Calpain-2 catalytic subunit (Sus scrofa, UniProt P43367); test: pig calpain II inhibitor potency, dose response, biochemical, fluorogenic peptide substrate (AID 1420); assay type: functional
T5 sequence (P43367 whole entry): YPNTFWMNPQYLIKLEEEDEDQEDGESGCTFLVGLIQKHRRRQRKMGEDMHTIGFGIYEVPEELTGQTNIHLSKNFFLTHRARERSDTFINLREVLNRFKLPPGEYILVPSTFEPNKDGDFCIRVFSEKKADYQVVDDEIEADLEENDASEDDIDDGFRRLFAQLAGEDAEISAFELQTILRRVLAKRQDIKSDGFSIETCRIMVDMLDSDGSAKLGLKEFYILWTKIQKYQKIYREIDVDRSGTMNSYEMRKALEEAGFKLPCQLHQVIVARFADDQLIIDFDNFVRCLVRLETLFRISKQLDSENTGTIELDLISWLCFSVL

[14] = THP-1 cell cytotoxicity, dose response, cytotoxicity control for Vif-APOBEC3G degradation inhibitor project, THP-1 cells (AID 1117359); assay type: functional; settings: Human immunodeficiency virus 1, THP-1
[15] = M. tuberculosis H37Rv growth inhibitors, H37Rv strain (AID 1626); assay type: functional
[16] = system: Vero; test: cells; assay type: functional, cell-based; settings: Chlorocebus sabaeus
[17] = target: T6, Mannose-6-phosphate isomerase (Homo sapiens, UniProt P34949); test: human PMI inhibitors, high substrate, primary screen, biochemical, fluorescence intensity, high mannose 6-phosphate (AID 1220)
T6 sequence (P34949 whole entry): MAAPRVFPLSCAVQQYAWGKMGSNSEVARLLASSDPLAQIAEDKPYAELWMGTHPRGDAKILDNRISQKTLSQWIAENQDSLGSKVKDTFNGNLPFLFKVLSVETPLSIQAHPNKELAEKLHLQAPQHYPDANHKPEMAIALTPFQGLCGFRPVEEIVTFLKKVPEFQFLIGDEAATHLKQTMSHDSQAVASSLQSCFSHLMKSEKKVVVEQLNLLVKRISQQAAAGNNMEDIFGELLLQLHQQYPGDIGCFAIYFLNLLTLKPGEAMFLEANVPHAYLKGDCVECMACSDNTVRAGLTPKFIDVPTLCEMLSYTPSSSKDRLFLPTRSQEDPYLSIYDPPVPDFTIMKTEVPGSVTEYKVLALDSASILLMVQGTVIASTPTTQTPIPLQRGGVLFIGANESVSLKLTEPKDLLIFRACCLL

[18] = system: H4; test: Luminescence Cell-Based Dose Response HTS to Identify Activators of 5'UTR Stem-Loop Driven Prion Protein mRNA Translation in H4 Neuroglioblastoma Cells. [Related pubchem assays: 1829 (Project Summary), 1814 (Primary HTS)]; assay type: functional; settings: Homo sapiens
[19] = cells; assay type: functional, cell-based
[20] = Luminescence Cell-Based Dose Response HTS to Identify Activators of Luciferase Translation or Activity in H4 […] Cells. [Related pubchem assays: 1829 (Project Summary), 1814 (Primary HTS)]; assay type: functional
[21] = target: T7, Trace amine-associated receptor 1 (Homo sapiens, UniProt Q96RJ0); test: Counterscreen for agonists of the human trace amine associated receptor 1 (hTAAR1): Fluorescence-based cell-based high throughput dose response assay to identify hTAAR1 agonist that also desensitize TAAR1 receptor response.; assay type: functional
T7 sequence (Q96RJ0 whole entry): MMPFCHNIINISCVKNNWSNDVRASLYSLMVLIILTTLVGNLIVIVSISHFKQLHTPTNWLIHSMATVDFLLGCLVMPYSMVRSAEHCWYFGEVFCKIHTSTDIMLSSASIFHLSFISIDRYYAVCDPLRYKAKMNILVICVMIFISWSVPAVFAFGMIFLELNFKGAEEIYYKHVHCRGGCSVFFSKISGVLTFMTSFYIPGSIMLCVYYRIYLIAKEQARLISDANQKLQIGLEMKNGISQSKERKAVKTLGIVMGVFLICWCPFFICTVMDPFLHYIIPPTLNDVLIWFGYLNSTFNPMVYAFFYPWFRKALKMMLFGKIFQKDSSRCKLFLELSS

[22] = Luminescence Cell-Based Dose Confirmation HTS to Identify Activators of 5'UTR Stem-Loop Driven Alpha-Synuclein mRNA Translation in H4 Neuroglioblastoma Cells. [Related pubchem assays: 1829 (Project Summary), 1814 (Primary HTS)]; assay type: functional
[23] = target: T7, Trace amine-associated receptor 1; test: Fluorescence-based cell-based high throughput dose response assay to identify agonists of the human trace amine associated receptor 1 (TAAR1).; assay type: functional
[24] = cells; assay type: functional, cell-based; remark: listed apart in the source

COC(=O)c1ccc2[nH]ccc2c1
IC50 [1]: 42.7 µM (active)

Cc1cc(C)c(S(=O)(=O)Nc2ccccc2-c2ccccc2)c(C)c1
EC50 [2]: 5.34 µM (active)
EC50 [3]: > 29.9 µM (not active)

CN(C)C(CNC(=O)CCNC(=O)c1ccc(Cl)cc1)c1ccco1 (stereo unspecified)
AC50 [4]: > 30 µM (inactive)

Oc1ccccc1-c1nc2c3ccccc3c3ccccc3c2[nH]1
CC50 [5]: 15.3 µM (active)
EC50 [6]: 12 µM (active)
EC50 [7]: 2.55 µM (active)
EC50 [8]: 4.11 µM (active)
IC50 [1]: 11 µM (active)

Cc1ccc(S(=O)(=O)NC2CCCCC2)c2nsnc12
EC50 [2]: 8.34 µM (active)
EC50 [3]: > 29.9 µM (not active)

COC(=O)[C@H](Cc1c[nH]c2ccccc12)NC(=O)NCc1ccc(OC)c(OC)c1
AC50 [4]: > 30 µM (inactive)

COc1cccc(N2C(=O)C(Cl)=C(N3CCN(C/C=C/c4ccccc4)CC3)C2=O)c1
IC50 [9]: > 50 µM (inconclusive)

CC1=CC(C)(C)N(C(=O)CN2C(=O)c3ccccc3C2=O)c2ccccc21
EC50 [2]: 1.45 µM (active)
EC50 [3]: > 29.9 µM (not active)

CC1CCN(CC(=O)Nc2ccc(N3CCCCCC3)cc2)CC1
AC50 [10]: 0.448 µM (active)
IC50 [11]: 13 µM (active)
AC50 [12]: 18 µM (active)

CCOc1cc(CNc2ccc(O)cc2)cc(Br)c1OCc1ccccc1F
IC50 [13]: 9.81 µM (not active)
CC50 [14]: 27.8 µM (active)

O=C(COC(=O)c1ccccc1Br)Nc1ccccc1F
IC50 [15]: > 100 µM (active)

Cc1cc(NC(=O)C(C)SCC(=O)N(Cc2ccccc2)c2ccccc2)no1 (stereo unspecified)
CC50 [5]: 29.9 µM (active)
IC50 [16]: > 25 µM (active)
IC50 [1]: 39.6 µM (active)

Oc1nc(Cc2ccc(F)cc2)nc2scc(-c3ccc(F)cc3)c12
AC50 [4]: 18 µM (active)

Cc1c(C(=O)NC(C)C)oc2c1-c1n[nH]cc1CC2
IC50 [17]: > 50 µM (not active)

COc1ccc(OC(=O)NCCc2ccccc2)cc1
EC50 [18]: 16.1 µM (active)
EC50 [19]: > 29.9 µM (inactive)
EC50 [20]: 49 µM (active)
IC50 [21]: > 29.9 µM (inactive)
EC50 [22]: 29 µM (active)
EC50 [23]: 0.535 µM (active)
IC50 [24]: > 29.9 µM (inactive)

Cn1cccc1/C=C1/C(=O)NC(=O)N(Cc2ccccc2)C1=O
CC50 [14]: > 40 µM (active)

COc1ccccc1CCNC(=O)C(=O)NCC1OCCN1S(=O)(=O)c1ccc(C)cc1 (stereo unspecified)
EC50 [19]: > 29.9 µM (inactive)
IC50 [21]: 7.91 µM (active)
EC50 [23]: 2.51 µM (active)
IC50 [24]: > 29.9 µM (inactive)

C/C(N)=C(/C#N)C(=O)COC(=O)c1ccccc1Cc1ccccc1
CC50 [5]: 32.2 µM (active)
IC50 [1]: 45 µM (active)

O=C(/C=C/C(=O)N1CCc2ccccc2C1)N1CCc2ccccc2C1
EC50 [19]: > 29.9 µM (inactive)
IC50 [21]: 4.67 µM (active)
EC50 [23]: 1.14 µM (active)
IC50 [24]: > 29.9 µM (inactive)

O/N=C/c1ccc(-c2cc(Cl)ccc2Cl)o1
IC50 [15]: > 100 µM (active)

Nc1nnc(SCc2ccc(F)cc2)s1
IC50 [15]: > 100 µM (active)
